Measurements: patent US20080153869A1, “Kinase Inhibitors” (priority 2004, published 2008)

Assays:
AIK = molecular target: T1, AIK (Homo sapiens, UniProt O14965); test: Inhibition of AIK, Direct Fluorescence Polarization (IMAP); type: biochemical; conditions: FP assay, 2.5 uM ATP, 2.5 nM AIK
T1 sequence (O14965 1-403): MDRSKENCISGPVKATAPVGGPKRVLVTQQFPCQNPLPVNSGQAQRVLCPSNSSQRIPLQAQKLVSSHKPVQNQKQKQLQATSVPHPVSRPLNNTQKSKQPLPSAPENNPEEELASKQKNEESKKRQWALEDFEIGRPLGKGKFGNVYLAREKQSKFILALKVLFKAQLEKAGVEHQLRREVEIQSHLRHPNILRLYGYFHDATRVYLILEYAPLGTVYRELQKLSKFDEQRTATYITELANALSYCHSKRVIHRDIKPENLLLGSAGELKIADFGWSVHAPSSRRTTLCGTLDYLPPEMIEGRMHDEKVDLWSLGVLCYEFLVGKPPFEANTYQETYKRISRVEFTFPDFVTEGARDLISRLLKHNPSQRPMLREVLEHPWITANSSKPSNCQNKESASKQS
Protocol: The inhibitory properties of compounds relative to AIK may be determined by the Direct Fluorescence Polarization detection method (FP) using a Greiner small volume black 384-well-plate format under the following reaction conditions: 50 mM Hepes pH 7.3, 10 mM MgCl2, 10 mM NaCl, 1 mM DTT, 0.01% Brij35, 100 nM Fluorescein-LRRASLG peptide (provided by SYNPEP), 5% DMSO, 2.5 uM ATP. Detection of the reaction product is performed by addition of IMAP binding reagent (Molecular Devices). Reaction product may be determined quantitatively by FP using an Analyst HT plate reader (Molecular Devices) with an excitation wavelength at 485 nm and emission at 530 nm and using a Fluorescein 505 dichroic mirror.
The assay reaction may be initiated as follows: 2 ul of (3×) 300 nM Fl-Peptide/7.5 uM ATP was added to each well of the plate, followed by the addition of 2 ul of (3×) inhibitor (2.5 fold serial dilutions for 11 data points for each inhibitor) containing 15% DMSO. 2 ul of (3×) 7.5 nM AIK solution may be added to initiate the reaction (final enzyme concentration was 2.5 nM for AIK). […] Fluorescence polarization readings of the resulting reaction mixtures may be measured after a 60-minute incubation at room temperature.
IC50 values may be calculated by non-linear curve fitting of the compound concentrations and fluorescent polarization values to the standard IC50 equation.

c-KIT = c-KIT (Homo sapiens, UniProt P10721); test: Inhibition of c-KIT, TR-FRET; type: biochemical; conditions: TR-FRET assay, 100 uM ATP, 0.13 nM c-Kit
c-KIT, sequence (P10721 26-976): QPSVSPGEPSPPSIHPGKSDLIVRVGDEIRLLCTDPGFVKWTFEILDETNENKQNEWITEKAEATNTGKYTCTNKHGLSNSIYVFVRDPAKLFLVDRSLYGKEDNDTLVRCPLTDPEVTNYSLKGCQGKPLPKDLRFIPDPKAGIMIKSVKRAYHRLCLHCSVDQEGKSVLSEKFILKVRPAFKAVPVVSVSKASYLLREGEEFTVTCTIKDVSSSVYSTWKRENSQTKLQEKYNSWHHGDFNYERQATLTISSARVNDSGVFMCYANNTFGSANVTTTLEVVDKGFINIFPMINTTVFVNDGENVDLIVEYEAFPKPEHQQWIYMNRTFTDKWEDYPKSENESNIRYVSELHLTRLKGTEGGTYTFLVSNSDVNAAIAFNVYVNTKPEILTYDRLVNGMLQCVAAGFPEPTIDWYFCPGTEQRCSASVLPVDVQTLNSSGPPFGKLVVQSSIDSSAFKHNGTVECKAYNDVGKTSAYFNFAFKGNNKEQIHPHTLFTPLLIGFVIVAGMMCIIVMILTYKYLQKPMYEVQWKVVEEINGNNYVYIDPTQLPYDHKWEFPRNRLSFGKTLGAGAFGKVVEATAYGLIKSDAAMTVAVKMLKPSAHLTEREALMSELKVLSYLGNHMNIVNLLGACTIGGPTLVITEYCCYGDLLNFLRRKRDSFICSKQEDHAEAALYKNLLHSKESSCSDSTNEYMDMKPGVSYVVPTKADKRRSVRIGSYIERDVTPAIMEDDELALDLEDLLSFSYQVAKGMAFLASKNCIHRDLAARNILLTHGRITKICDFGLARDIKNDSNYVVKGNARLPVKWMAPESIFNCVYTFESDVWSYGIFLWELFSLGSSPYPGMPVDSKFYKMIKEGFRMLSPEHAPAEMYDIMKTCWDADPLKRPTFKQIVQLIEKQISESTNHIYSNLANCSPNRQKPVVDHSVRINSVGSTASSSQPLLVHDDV

IC50 (AIK): < 100 µM | IC50 (c-KIT): < 100 µM
Compound: Cc1cc(-c2c(O)[nH]c3ccccc23)nc(N)n1 [Example 1, 3-(2-Amino-6-methyl-pyrimidin-4-yl)-1H-indol-2-ol]
